Experimental data taken from article PMC12010006, “Subnanomolar MAS-related G protein-coupled receptor-X2/B2 antagonists with efficacy in human mast cells and disease models” (Signal Transduction and Targeted Therapy, 2025).

Key:
[1] = MTT cytotoxicity assay, 1321N1 astrocytoma cells; format: cell-based; details: human
Experimental: Potential cytotoxicity of 24 and its similarly potent analogs 27 and 30 was assessed in 3-(4,5-dimethylthiazol-2-yl)-2,5-diphenyl-2H-tetrazolium bromide (MTT) assays performed on human 1321N1 astrocytoma cells (Supplementary Table S3). This cell line was chosen since it is well-established for the screening of cytotoxic drugs, making it a reliable choice for assessing cytotoxicity.[46]
For the experiment, 1321N1 astrocytoma cells were seeded at a density of 1 × 10^5 cells/well in 180 µL of cell medium into transparent 96-well plates, whereby the outer wells only contained buffer (to avoid an edge effect). Cells were incubated for 24 h at 37°C, 5% CO2. Compound dilutions were prepared in DMSO. […] Subsequently, 20 µL of these compound dilutions were added to each well so that astrocytoma cells were incubated with varying concentrations of MRGPRX2 antagonists (0.01 µM–10 µM) at 37° C, 5% CO2. 5-Fluoruracil, a cytostatic drug, served as a positive control. Medium-containing DMSO in the absence of a compound served as a negative control. After 71 h, […] of MTT solution (5 mg/mL, prepared in Millipore water) was added to each well (final concentration 0.5 mg/mL) and cells were incubated again for another hour. Subsequently, the medium was removed, and cells were lyzed by adding 100 µL of DMSO per well. In order to dissolve the produced formazan dye crystals, plates were incubated for 2 min on a rotary shaker (150 rpm). Afterward, the UV absorbance at 570 nm was measured by using SoftMax® Pro5.1 Microplate Data Acquisition & Analysis Software (Molecular Devices, Sunnyvale, CA, USA). The UV absorbance at 690 nm was measured directly afterward to eliminate the background absorbance of residual medium and cell components. The values of the measured UV absorbance at 690 nm were subtracted from the values obtained by the measurement of UV absorbance at 570 nm. Three to four independent experiments were performed, each in triplicate.

MRGPRX2 = target: T1, MRGPRX2 (Homo sapiens, UniProt Q96LB1); test: β-hexosaminidase release, LAD2 cells; format: cell-based; details: versus SP (0.3 µM)
T1 sequence (Q96LB1 1-330): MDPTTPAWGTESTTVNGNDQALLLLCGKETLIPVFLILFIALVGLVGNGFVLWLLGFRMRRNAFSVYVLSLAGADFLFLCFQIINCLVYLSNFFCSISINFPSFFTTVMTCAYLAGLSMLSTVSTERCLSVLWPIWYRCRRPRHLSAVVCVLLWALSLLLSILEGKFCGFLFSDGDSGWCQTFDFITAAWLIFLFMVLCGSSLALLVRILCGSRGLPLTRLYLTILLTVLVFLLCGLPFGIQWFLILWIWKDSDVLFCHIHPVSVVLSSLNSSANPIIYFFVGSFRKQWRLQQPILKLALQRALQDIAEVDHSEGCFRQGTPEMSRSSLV
Experimental: PSB-172656 inhibited MRGPRX2-mediated Ca^2+ mobilization in LAD2 cells (see Supplementary Fig. S4).
Fig. 6 PSB-172656 inhibits MRGPRX2-mediated mast cell degranulation. a LAD2 cells were incubated with buffer (control) or various concentrations of MRGPRX2 antagonist PSB-172656, subsequently exposed to substance P (SP, 0.3 µM), and β-hexosaminidase release was measured. […] Data are expressed as means ± SEM of 3 biological replicates. Statistical significance was determined by one-way ANOVA (Tukey’s multiple comparisons), compared to the effect of SP in the absence of PSB-172656 (P-value*** < 0.001). b Potential cytotoxicity of PSB-172656 was determined in 3-[4,5-dimethylthiazol-2-yl]-2,5-diphenyl tetrazolium bromide (MTT) assays performed on LAD2 cells. Cells were treated with different concentrations of PSB-172656 for 24 h at 37 °C, and the optic density value was determined at 570 nm (the viability of untreated cells corresponds to 100% cell viability). […] Mean fluorescence intensity (MFI) levels of e CD107a and f CD63 are depicted. […] Degranulation is characterized by the release of β-hexosaminidase, expressed as a percentage of the total content. h Human skin MCs were incubated with different concentrations of PSB-172656 for 30 min followed by stimulation with CST-14 (1 µM). […]
Degranulation as determined by β-hexosaminidase release was performed as described previously.[66],[67] […]

## CCc1c(C(C)C)[nH]c2nc3cc(F)c(F)cc3n2c1=O [Compound 24, 3-ethyl-7,8-difluoro-2-isopropylbenzo[4,5]imidazo [1,2-a] pyrimidin-4(1H)-one]
[1]
  CC50 at 72 h: > 10000 nM
[1]; up to 10,000 nM, read-out: Cytotoxicity % effect
  cytotoxicity at 72 h, 10000 nM: 41%
MRGPRX2
  IC50: 5.26 nM
